Assays:
[1] = system: rat ear oedema; test: Anti-inflammatory activity: inhibition of rat ear oedema (croton oil); assay type: in vivo; conditions: dose 100 μg, topical to ear with 5% croton oil in acetone, male rats, 6 hours
Method: (i) Anti-inflammatory Activity--Inhibition of rat ear oedema
The test compounds are dissolved in acetone and 40 ul containing 5% croton oil is applied to the inner surface of each of the ears of 60-80 g male rats. Animals are killed 6 hours later and the ears are removed. Standard size (0.5 cm diameter) discs are punched out and the discs weighed. Mean weight of the ear discs is calculated and from this percentage inhibition of ear inflammation in relation to croton oil alone treated ears are calculated.

[2] = system: Adrenocorticotrophic hormone (ACTH); test: Systemic effects: ACTH suppression in adrenalectomised rats; assay type: in vivo, rat; conditions: single intra-tracheal, adrenalectomised male CD rats, plasma ACTH at 4 h
Method: (ii) Systemic effects--ACTH suppression in adrenalectomised rats
Male CD rats (90-120 g) were adrenalectomised under Isoflurane anaesthesia and drinking water was supplemented with 0.9% saline. Four days later the animals receive a single intra-tracheal dose (under Isoflurane anaesthesia) of compound suspended in saline (containing 0.2% Tween-80, 0.2 ml) at 10 am. After 4 h animals are sacrificed by administration of Euthetal and blood samples are taken by intra-cardiac puncture and collected into heparinised tubes. The samples are centrifuged (20 minutes at 1000 RPM at 4 deg C.), the plasma is collected and assayed by Radioimmunoassay (RIA) for Adrenocorticotrophic hormone (ACTH) using a DPC double antibody RIA kit. Intact and vehicle control groups were included in each experiment in order to account for diurnal variation in ACTH and effects of vehicle. Results are calculated with respect to the RIA standard curve and expressed as ACTH pg/ml plasma, allowing percentage reduction in ACTH to be calculated.

Compound	% Inhibition (ear inflammation) [1] [%]	% Reduction in ACTH ([2]; dose 500 μg) [%]	% Reduction in ACTH ([2]; dose 1 μg) [%]	% Reduction in ACTH ([2]; dose 5 μg) [%]
CCC(=O)O[C@]1(C(=O)S[C@H]2CCOC2=O)[C@H](C)C[C@H]2[C@@H]3C[C@H](F)C4=CC(=O)C=C[C@]4(C)[C@@]3(F)[C@@H](O)C[C@@]21C [Example 2, 6α,9α-Difluoro-11β-hydroxy-16α-methyl-3-oxo-17α-propionyloxy-androsta-1,4-diene-17β-carbothioic acid S-(2-oxo-tetrahydro-furan-3S-yl)-ester]	42	0	–	–
CC1(C)O[C@@H]2C[C@H]3[C@@H]4C[C@H](F)C5=CC(=O)C=C[C@]5(C)[C@@]4(F)[C@@H](O)C[C@]3(C)[C@]2(C(=O)CO)O1 [Fluocinolone acetonide]	–	–	49	84

Reference: patent US6197761A, “17β-2-oxo-tetrahydrofuranyl)-carbothioic acid ester, -carboxylic acid ester and -carboxylic acid amide androstane derivatives” (Glaxo Wellcome Inc., priority 1995, dated 2001)
